Data on 5 compounds can be found in patent publication US7094753B2, “Somatostatin analog and uses thereof” (Societe de Conseils de Recherches et d'Applications …, priority 2001, dated 2006).

Assay [1] concerns GH-secreting adenoma cells. As to conditions: for suppression of GH: 10 nM; for mean maximal GH suppression: at nanomolar concentrations; for EC50: read-out: EC50 of inhibition of GH release. The method, then:
(§1) GH and PRL were measured using commercial immunoradiometric kits (Immunotech, Marseilles, France). Normal GH values ranged from 0.2–2.4 μg/L; normal PRL values ranged from 1–24 μg/L in women and from 1–17 μg/L in men. After an ethanol-acid extraction, the plasma IGF-I assay was performed using the IGF-I RIA kit from Nichols Institute Diagnostics (San Juan Capistrano, Calif.).
(§2) A portion of each tumor obtained at surgery was dissociated by mechanical and enzymatic methods. […] Tumor cells were initially cultured in DMEM supplemented with 10% FCS for 3 days. On day 3, the cells were washed and plated in multiwell culture dishes (Costar 3524, Brumath, France) coated with extracellular matrix from bovine endothelial corneal cells as previously described (Jaquet P, et al., 1985, Horm Res. 22:153–163.) at a density of 2×10^4 cells/well. When they were attached to the matrix on days 5–8, depending on the culture, the medium was removed and replaced with DMEM supplemented with 2% FCS, antibiotics, transferrin, and selenium as previously described (Jaquet P, et al., 1985, Horm Res. 22:153–163.). […] Each drug concentration was tested in quadruplicate.
(§3) SRIF-14 was purchased from Sigma (Saint-Quentin Fallavier, France). […] The native SRIF and SRIF analogs were dissolved in 0.01 mol/L acetic acid containing 0.1% purified serum albumin (Life Technologies, Inc., Cergy-Pontoise, France). The drugs were stored at −80 C. as 10^−3 mol/L solutions. For each experiment, fresh working solutions were prepared from a new aliquot.
(§4) The results are presented as the mean±SEM. Statistical significance between two unpaired groups was determined by the Mann-Whitney test. To measure the strength of association between the pairs of variables without specifying dependencies, Spearman order correlation's were used. P<0.05 was considered significant for all tests.

Assay [2] deals with mixed GH-/PRL-secreting tumor cells. Nature of the assay: Inhibition of PRL release in mixed GH-/PRL-secreting tumor cell cultures. Type of assay: cell-based, human. The conditions noted are these: five tumor cell cultures (A1, A2, A7, A9, A10); for mean maximal PRL suppression: at 10 nmol/L. How it is done: as §1, §2, §3, §4
The next assay relates to GH. Nature of the assay: Acute octreotide test in acromegalic patients (GH decrease). Type of assay: in vivo, human. The conditions noted are these: for mean GH suppression: single 200 μg injection, GH 2–6 h after injection vs basal; for Percent inhibition vs. GH basal value: 2–6 h after 200 μg sc; for GH under octreotide: mean GH 2–6 h after 200 μg sc. The method, then:
Ten acromegalic patients (seven women and three men), aged 26–62 years, presenting with macroadenoma were studied. Their endocrine status and the neuroradiological characterization of the pituitary adenomas were documented before treatment. Basal GH levels were the mean of three random samples obtained between 0800–0900 h. The basal IGF-I value was evaluated under fasting conditions between 0800–0900 h. […] All patients underwent transsphenoidal surgery.
as §1

Setting [3] is: octreotide partially responsive tumors (A6–A10).
Where [4] appears, read: octreotide-sensitive tumors (A1–A5).

Like-named read-outs stand apart in the source and are kept apart here. Bridge positions count the residues as written; N and C are the ends. Square brackets hold non-standard residues; d marks the D form. Peptide text beside a SMILES is read from it.

For the compound `CC(C)[C@@H]1NC(=O)[C@H](CCCCN)NC(=O)[C@@H](Cc2c[nH]c3ccccc23)NC(=O)[C@H](Cc2ccc(O)c(I)c2)NC(=O)[C@@H](NC(=O)[C@H](N)Cc2ccccc2)CSSC[C@@H](C(=O)N[C@H](C(N)=O)[C@@H](C)O)NC1=O` [Formula (I), D-Phe-c(Cys-Tyr(I)-D-Trp-Lys-Val-Cys)-Thr-NH2], in assay [1] (setting [3]), the “maximal GH suppression” value worked out at 44±5% and the “suppression of GH” value is listed as 44±5%. In addition, the “mean maximal GH suppression” value in assay [1] (setting [4]) is 44±5%. Moreover, the “mean maximal PRL suppression” value in assay [2] is given as 51±5%.
Take `C[C@@H](O)[C@@H]1NC(=O)[C@H](CCCCN)NC(=O)[C@@H](Cc2c[nH]c3ccccc23)NC(=O)[C@H](Cc2ccccc2)NC(=O)[C@H](Cc2ccccc2)NC(=O)[C@@H](N)CSSC[C@@H](C(N)=O)NC(=O)[C@H](Cc2ccccc2)NC1=O` [Compound B] (H-CFF[dW]KTFC-NH2; disulfide 1-8): in assay [1] (setting [3]), the “maximal GH suppression” value is 38±7%. Moreover, in assay [1] (setting [4]), the “concentration producing maximal inhibition of GH release” value is given as 10 nmol/L. In addition, the “mean maximal PRL inhibition” value in assay [2] turned out to be 52±6%.
Regarding `C[C@H](N)C(=O)NCC(=O)N[C@H]1CSSC[C@@H](C(=O)O)NC(=O)[C@H](CO)NC(=O)[C@H]([C@@H](C)O)NC(=O)[C@H](Cc2ccccc2)NC(=O)[C@H]([C@@H](C)O)NC(=O)[C@H](CCCCN)NC(=O)[C@H](Cc2c[nH]c3ccccc23)NC(=O)[C@H](Cc2ccccc2)NC(=O)[C@H](Cc2ccccc2)NC(=O)[C@H](CC(N)=O)NC(=O)[C@H](CCCCN)NC1=O` [Somatostatin-14], in assay [1] (setting [3]), the “maximal GH suppression compared with Compound B” value is “equally achieved”. For the same compound, the “dose-related inhibition of PRL release compared with Compound B” value in assay [2] is on record as “similarly achieved”.
Usually EC50 stands for the midpoint of the concentration-response curve. In the case of Octreotide, the “suppression of GH” value in assay [1] (setting [3]) was 26±7%. In assay [1] (setting [4]), the “mean maximal GH suppression” value amounted to 36±7%. The EC50 in assay [1] (cultures from the 5 octreotide partially responsive tumors (A6–A10)) turned out to be 0.2 ± 0.145 nM; in assay [1] (cultures from the 5 octreotide-sensitive tumors (A1–A5), 8-h period), 0.055 ± 0.015 nM. The “mean GH suppression” value in the assay on GH (five full octreotide responders) turned out to be 79±7%; in the assay with GH (five partial octreotide responders), 33±6%. Also, the “Percent inhibition vs. GH basal value” in the assay on GH (patient A1) came to 91%; in the assay on GH (patient A2), 82%; with GH (patient A3) it was 76%; in the assay with GH (patient A4) it was 75%; in the assay with GH (patient A5) it was 75%; in the assay with GH (patient A6), 40%. In addition, the “Percent inhibition vs. GH basal value” with GH (patient A7) was 39%; in the assay with GH (patient A8), 37%; with GH (patient A9), 29%; in the assay on GH (patient A10), 23%. The GH under octreotide in the assay with GH (patient A1, basal 11) is 1 µg/L; in the assay with GH (patient A2, basal 22), 4 µg/L; in the assay on GH (patient A3, basal 109), 26 µg/L; in the assay on GH (patient A4, basal 141), 36 µg/L; with GH (patient A5, basal 47), 12 µg/L; in the assay with GH (patient A6, basal 5), 3 µg/L. The GH under octreotide in the assay on GH (patient A7, basal 26) came to 15.8 µg/L; with GH (patient A8, basal 13), 8.2 µg/L; with GH (patient A9, basal 141) it was 100 µg/L; in the assay with GH (patient A10, basal 195), 151 µg/L. In addition, the “mean maximal PRL suppression” value in assay [2] worked out at 34±7%.
Take `CC[C@@H]1NC(=O)[C@H](CCCCN)NC(=O)[C@@H](Cc2c[nH]c3ccccc23)NC(=O)[C@H](Cc2ccc(O)cc2)NC(=O)[C@@H](NC(=O)[C@@H](Cc2ccccc2)NS(=O)(=O)CCN2CCN(CCO)CC2)CSSC[C@@H](C(=O)N[C@H](C(N)=O)[C@@H](C)O)NC1=O` [Compound A]: the “maximal GH suppression” value in assay [1] (setting [3]) came out at 31±5%. The “maximal mean GH suppression” value in assay [1] (octreotide-sensitive tumors (A1–A5), at 0.1 nmol/L) was found to be 41±7%. Moreover, the “mean maximal PRL inhibition” value in assay [2] worked out at 34±5%.
